Converted amounts (≈) assume the structure as drawn. Read-outs that look alike come from different tables or passages of the source.
Tests used:
[1] = tested on: Staphylococcus epidermidis ATCC 12983; test: Antibacterial activity in vitro (MIC); type: cell-based
[2] = tested on: Alcaligenes faecalis NCTC 415; test: Antibacterial activity in vitro (MIC); type: cell-based; conditions: NCTC415, inoculum 10^6 cells/ml
Source text: (§7) (Inoculum size: 10^6 cells/ml, Organisms with asterisk (*) were
(§8) cultivated in a 10% horse bloodadded medium.)

[3] = tested on: Enterobacter cloacae IFO 12937; test: Antibacterial activity in vitro (MIC); type: cell-based
Source text: as §7, §8

[4] = tested on: Flavobacterium meningosepticum IFO 12535; test: Antibacterial activity in vitro (MIC); type: cell-based; conditions: Elizabethkingia meningoseptica, IFO12535; inoculum 10^6 cells/ml
Source text: as §7, §8

S. aureus 109(MRSA) [5] = test: MIC of the infecting organism (Experiment 2); type: cell-based; conditions: Staphylococcus aureus, Table 2
Experimental: (§1) Experimental infection was caused by inoculating male mice intraperitoneally with each organism. Each of the test compounds was administered orally to the mice, one hour after the inoculation. […] The Minimum inhibitory concentrations (MIC) were also measured.

S. pneumoniae Type III [6] = test: MIC of the infecting organism (Experiment 2); type: cell-based; conditions: Streptococcus pneumoniae; Table 2
Experimental: as §1

S. pyogenes C-203 [7] = test: MIC of the infecting organism (Experiment 2); type: cell-based; conditions: Streptococcus pyogenes, C203; Table 2
Experimental: as §1

E. coli KC-14 = test: Protective effect against experimental infection in mice; type: in vivo; conditions: oral, 1 h after i.p. inoculation of 5.75 × 10^4 cells/mouse [488 LD50] with mucin; survival day 7; 95% confidence limit
Experimental: (§2) Experimental infection was caused by inoculating male mice intraperitoneally with each organism. Each of the test compounds was administered orally to the mice, one hour after the inoculation. The therapeutic effect of each compounds was judged by using a 50% effective dose (ED50) from the survival rate on day 7 after injection by the Probit method as described in Proc. Soc. Exp. Biol. Med., Vol. 57, p.261-264, 1944. The Minimum inhibitory concentrations (MIC) were also measured.
(§3) (The overnight cultures of test organisms with an asterisk (*) were
(§4) diluted with 50% mucin and 0.5 ml of each was injected intraperitoneally
(§5) into mice. A double asterisk (**) means a 95% confidence limit. MRSA mean
(§6) methycillinresistant Staphylococcus aureus.)

S. aureus 109(MRSA) [8] = test: as above; type: in vivo; conditions: oral, 1 h after i.p. inoculation of 4.93 × 10^8 cells/mouse [5.7 LD50] with mucin; survival day 7; 95% confidence limit
Experimental: as §2, §3, §4, §5, §6

S. aureus Smith = test: as above; type: in vivo; conditions: oral, 1 h after i.p. inoculation of 2.13 × 10^6 cells/mouse [792 LD50] with mucin; survival day 7; 95% confidence limit
Experimental: as §2, §3, §4, §5, §6

S. pneumoniae Type III [9] = test: as above; type: in vivo; conditions: oral, 1 h after i.p. inoculation of 6.0 × 10^2 cells/mouse [12 LD50]; survival day 7; 95% confidence limit
Experimental: as §2, §3, §4, §5, §6

S. pyogenes C-203 [10] = test: as above; type: in vivo; conditions: oral, 1 h after i.p. inoculation of 4.42 × 10^4 cells/mouse [680 LD50]; survival day 7; 95% confidence limit
Experimental: as §2, §3, §4, §5, §6

Acute toxicity = conditions: mouse, in vivo
Experimental: The compound A was intraveneously (iv) or orally (po) administered to a group of male mice once. After 10 days, the LD50 values were determined by the Litchfield-Wilcoxon method.

[11] = tested on: Aerococcus viridans IFO 12219; test: microbe, parasite or virus in culture; conditions: IFO12219
Source text: as §7, §8

Row | SMILES | MIC ([1]; ATCC12983) | MIC [2] | MIC ([3]; IFO12937) | MIC [4] | MIC (S. aureus 109(MRSA) [5]) | MIC (S. pneumoniae Type III [6]) | MIC (S. pyogenes C-203 [7]) | ED50 (E. coli KC-14) | ED50 (S. aureus 109(MRSA) [8]) | ED50 (S. aureus Smith) | ED50 (S. pneumoniae Type III [9]) | ED50 (S. pyogenes C-203 [10]) | LD50 at 240 h (Acute toxicity; iv) | LD50 at 240 h (Acute toxicity; po) | MIC [11] | MIC ([1]; ATCC12983, inoculum 10^6 cells/ml, 10% horse blood-added medium, read-out: MIC) | MIC ([3]; IFO12937, inoculum 10^6 cells/ml, read-out: MIC)
1 | CNCC1CN(c2c(F)cc3c(=O)c(C(=O)O)cn(C4CC4)c3c2F)CCO1 (stereo not shown) [Compound A, 1-cyclopropyl-6,8-difluoro-1,4,-dihydro-7-[2-(methylaminomethyl)morpholino]-4-oxoquinoline-3-carboxylic acid] | 0.05 µg/mL (≈ 0.127 µM) | 1.56 µg/mL (≈ 3.97 µM) | 0.78 µg/mL (≈ 1.98 µM) | 1.56 µg/mL (≈ 3.97 µM) | 0.2 µg/mL | 0.05 µg/mL | 0.05 µg/mL | 0.028(0.019-0.042) mg/mouse | 0.061(0.041-0.093) mg/mouse | 0.068(0.044-0.104) mg/mouse | 0.707(0.453-1.104) mg/mouse | 0.214(0.124-0.388) mg/mouse | 210 mg/kg | > 3000 mg/kg | 0.1 µg/mL (≈ 0.254 µM) |  | 
2 | CC1COc2c(N3CCN(C)CC3)c(F)cc3c(=O)c(C(=O)O)cn1c23 (stereo not shown) [OFLX, 9-fluoro-3-methyl-10-(4-methyl-1-piperazinyl)-7-oxo-2,3-dihydro-7H-pyrido[1,2,3-de][1,4]-benzoxazine-6-carboxylic acid] |  | 0.78 µg/mL (≈ 2.16 µM) |  | 0.78 µg/mL (≈ 2.16 µM) | 0.78 µg/mL | 1.56 µg/mL | 0.78 µg/mL | 0.018(0.013-0.026) mg/mouse | 0.459(0.257-0.661) mg/mouse | 0.380(0.253-0.601) mg/mouse | > 2 mg/mouse | 1.432(1.006-2.393) mg/mouse |  |  | 3.13 µg/mL (≈ 8.66 µM) | 0.39 µg/mL (≈ 1.08 µM) | 0.39 µg/mL (≈ 1.08 µM)

— patent US4889857A, “Quinolonecarboxylic acid compounds and pharmaceutical use thereof” (Yoshitomi Pharmaceutical Industries, Ltd., priority 1987, dated 1989)
